{"source": "ChEMBL document CHEMBL3885861", "about": "“Open TG-GATES”", "species": "Rattus norvegicus", "experiment": "Open TG-GATES - Regimen: Single", "assay_type": "toxicity, organism-based, Sprague-Dawley", "set-up": "regimen Single, gender Male, age 6 weeks", "conditions": "in vivo, po, 0 mg/kg, route gavage, dose level Control; for APTT / Bas / Eos / Fbg / Hb / Ht / Lym / MCH / MCHC / MCV / Mono / Neu / PT / Plat / RBC / Ret / WBC: tissue Blood; for KIDNEY_L / KIDNEY_R / KIDNEY_TOTAL: tissue Kidney; for LIVER: tissue Liver; for A/G / ALP / ALT / AST / BUN / CRE / Ca / Cl / DBIL / GLC / IP / K / LDH / Na / PL / RALB / TBIL / TC / TG / TP / gamma-GTP: tissue Plasma", "data": [{"compound": "CCOC(=O)C(C)(C)Oc1ccc(Cl)cc1", "note": "[CLOFIBRATE]", "values": [{"measurement": "TERMINAL_BW", "setting": "3 h", "value": 228.9, "unit": "g"}, {"measurement": "APTT", "setting": "3 h", "value": 18.8, "unit": "s"}, {"measurement": "Bas", "setting": "3 h", "value": 0, "unit": "%"}, {"measurement": "Eos", "setting": "3 h", "value": 0.8, "unit": "%"}, {"measurement": "Fbg", "setting": "3 h", "value": 234.6, "unit": "mg/dL"}, {"measurement": "Hb", "setting": "3 h", "value": 13.3, "unit": "g/dL"}, {"measurement": "Ht", "setting": "3 h", "value": 38.4, "unit": "%"}, {"measurement": "Lym", "setting": "3 h", "value": 81.8, "unit": "%"}, {"measurement": "MCH", "setting": "3 h", "value": 21.5, "unit": "pg"}, {"measurement": "MCHC", "setting": "3 h", "value": 34.9, "unit": "%"}, {"measurement": "MCV", "setting": "3 h", "value": 61.6, "unit": "fL"}, {"measurement": "Mono", "setting": "3 h", "value": 2.4, "unit": "%"}, {"measurement": "Neu", "setting": "3 h", "value": 14.4, "unit": "%"}, {"measurement": "PT", "setting": "3 h", "value": 12.2, "unit": "s"}, {"measurement": "Plat", "setting": "3 h", "value": 137.2, "unit": "x10_4/uL"}, {"measurement": "RBC", "setting": "3 h", "value": 623.6, "unit": "x10_4/ul"}, {"measurement": "Ret", "setting": "3 h", "value": 7.6, "unit": "%"}, {"measurement": "WBC", "setting": "3 h", "value": 86.9, "unit": "x10_2/uL"}, {"measurement": "KIDNEY_L", "setting": "3 h", "value": 0.9, "unit": "g"}, {"measurement": "KIDNEY_R", "setting": "3 h", "value": 0.9, "unit": "g"}, {"measurement": "KIDNEY_TOTAL", "setting": "3 h", "value": 1.8, "unit": "g"}, {"measurement": "LIVER", "setting": "3 h", "value": 10.8, "unit": "g"}, {"measurement": "A/G", "setting": "3 h", "value": 1.6}, {"measurement": "ALP", "setting": "3 h", "value": 1250.4, "unit": "IU/L"}, {"measurement": "ALT", "setting": "3 h", "value": 37.6, "unit": "IU/L"}, {"measurement": "AST", "setting": "3 h", "value": 75.6, "unit": "IU/L"}, {"measurement": "BUN", "setting": "3 h", "value": 11.6, "unit": "mg/dL"}, {"measurement": "CRE", "setting": "3 h", "value": 0.4, "unit": "mg/dL"}, {"measurement": "Ca", "setting": "3 h", "value": 11, "unit": "mg/dL"}, {"measurement": "Cl", "setting": "3 h", "value": 101.8, "unit": "meq/L"}, {"measurement": "DBIL", "setting": "3 h", "value": 0.4, "unit": "mg/dL"}, {"measurement": "GLC", "setting": "3 h", "value": 193.4, "unit": "mg/dL"}, {"measurement": "IP", "setting": "3 h", "value": 8.4, "unit": "mg/dL"}, {"measurement": "K", "setting": "3 h", "value": 3.8, "unit": "meq/L"}, {"measurement": "LDH", "setting": "3 h", "value": 218.8, "unit": "IU/L"}, {"measurement": "Na", "setting": "3 h", "value": 139, "unit": "meq/L"}, {"measurement": "PL", "setting": "3 h", "value": 184, "unit": "mg/dL"}, {"measurement": "RALB", "setting": "3 h", "value": 3.6, "unit": "g/dL"}, {"measurement": "TBIL", "setting": "3 h", "value": 0.4, "unit": "mg/dL"}, {"measurement": "TC", "setting": "3 h", "value": 79.8, "unit": "mg/dL"}, {"measurement": "TG", "setting": "3 h", "value": 233.2, "unit": "mg/dL"}, {"measurement": "TP", "setting": "3 h", "value": 5.8, "unit": "g/dL"}, {"measurement": "gamma-GTP", "setting": "3 h", "value": 1, "unit": "IU/L"}, {"measurement": "TERMINAL_BW", "setting": "6 h", "value": 225.4, "unit": "g"}, {"measurement": "APTT", "setting": "6 h", "value": 18.9, "unit": "s"}, {"measurement": "Bas", "setting": "6 h", "value": 0, "unit": "%"}, {"measurement": "Eos", "setting": "6 h", "value": 1, "unit": "%"}, {"measurement": "Fbg", "setting": "6 h", "value": 229.6, "unit": "mg/dL"}, {"measurement": "Hb", "setting": "6 h", "value": 13.7, "unit": "g/dL"}, {"measurement": "Ht", "setting": "6 h", "value": 39.7, "unit": "%"}, {"measurement": "Lym", "setting": "6 h", "value": 76.8, "unit": "%"}, {"measurement": "MCH", "setting": "6 h", "value": 20.9, "unit": "pg"}, {"measurement": "MCHC", "setting": "6 h", "value": 34.5, "unit": "%"}, {"measurement": "MCV", "setting": "6 h", "value": 60.7, "unit": "fL"}, {"measurement": "Mono", "setting": "6 h", "value": 3.4, "unit": "%"}, {"measurement": "Neu", "setting": "6 h", "value": 18.4, "unit": "%"}, {"measurement": "PT", "setting": "6 h", "value": 12.5, "unit": "s"}, {"measurement": "Plat", "setting": "6 h", "value": 131.5, "unit": "x10_4/uL"}, {"measurement": "RBC", "setting": "6 h", "value": 654.6, "unit": "x10_4/ul"}, {"measurement": "Ret", "setting": "6 h", "value": 7.7, "unit": "%"}, {"measurement": "WBC", "setting": "6 h", "value": 91.8, "unit": "x10_2/uL"}, {"measurement": "KIDNEY_L", "setting": "6 h", "value": 1, "unit": "g"}, {"measurement": "KIDNEY_R", "setting": "6 h", "value": 1, "unit": "g"}, {"measurement": "KIDNEY_TOTAL", "setting": "6 h", "value": 2, "unit": "g"}, {"measurement": "LIVER", "setting": "6 h", "value": 10, "unit": "g"}, {"measurement": "A/G", "setting": "6 h", "value": 1.7}, {"measurement": "ALP", "setting": "6 h", "value": 1002.8, "unit": "IU/L"}, {"measurement": "ALT", "setting": "6 h", "value": 31.2, "unit": "IU/L"}, {"measurement": "AST", "setting": "6 h", "value": 67.2, "unit": "IU/L"}, {"measurement": "BUN", "setting": "6 h", "value": 8.6, "unit": "mg/dL"}, {"measurement": "CRE", "setting": "6 h", "value": 0.3, "unit": "mg/dL"}, {"measurement": "Ca", "setting": "6 h", "value": 10.7, "unit": "mg/dL"}, {"measurement": "Cl", "setting": "6 h", "value": 103.2, "unit": "meq/L"}, {"measurement": "DBIL", "setting": "6 h", "value": 0.1, "unit": "mg/dL"}, {"measurement": "GLC", "setting": "6 h", "value": 192.2, "unit": "mg/dL"}, {"measurement": "IP", "setting": "6 h", "value": 8.8, "unit": "mg/dL"}, {"measurement": "K", "setting": "6 h", "value": 3.9, "unit": "meq/L"}, {"measurement": "LDH", "setting": "6 h", "value": 224, "unit": "IU/L"}, {"measurement": "Na", "setting": "6 h", "value": 140.4, "unit": "meq/L"}, {"measurement": "PL", "setting": "6 h", "value": 157.6, "unit": "mg/dL"}, {"measurement": "RALB", "setting": "6 h", "value": 3.5, "unit": "g/dL"}, {"measurement": "TBIL", "setting": "6 h", "value": 0.2, "unit": "mg/dL"}, {"measurement": "TC", "setting": "6 h", "value": 76.2, "unit": "mg/dL"}, {"measurement": "TG", "setting": "6 h", "value": 86, "unit": "mg/dL"}, {"measurement": "TP", "setting": "6 h", "value": 5.7, "unit": "g/dL"}, {"measurement": "gamma-GTP", "setting": "6 h", "value": 1, "unit": "IU/L"}]}]}
